{"source": "patent US20250114299A1", "about": "“COMBINATION THERAPY INTRAVAGINAL RINGS” (The population Council, Inc., priority 2022, published 2025)", "key": {"[1]": {"assay": "Solubility of DPV (Form I) in various solvents", "assay_type": "physicochemical"}, "[2]": {"assay": "pKa of DPV (chemical properties)", "assay_type": "physicochemical"}, "[3]": {"test_system": "wild-type HIV-1 strains and HIV-1 strains harboring different resistance-inducing mutations", "conditions": "Das et al., J. Med Chem., 2004; cited from earlier work"}}, "note": "Like-named read-outs stand apart in the source and are kept apart here.", "data": [{"molecule": "Cc1cc(C)c(Nc2ccnc(Nc3ccc(C#N)cc3)n2)c(C)c1", "note": "[DPV, 4-[[4-[(2,4,6-trimethylphenyl)amino]-2-pyrimidinyl]amino]benzonitrile]", "values": [{"measurement": "Solubility", "setting": "[1]; Form I, 0.01M HCl", "value": 0.17, "unit": "mg/g"}, {"measurement": "Solubility", "setting": "[1]; Form I, 0.1M HCl", "value": 0.02, "unit": "mg/g"}, {"measurement": "Solubility", "setting": "[1]; Form I, 0.1M NaOH", "value": 0.001, "unit": "mg/g"}, {"measurement": "Solubility", "setting": "[1]; Form I, Buffer pH 2", "value": 0.095, "unit": "mg/g"}, {"measurement": "Solubility", "setting": "[1]; Form I, Buffer pH 4", "value": 0.0025, "unit": "mg/g"}, {"measurement": "Solubility", "setting": "[1]; Form I, Buffer pH 6", "value": 0.001, "unit": "mg/g"}, {"measurement": "Solubility", "setting": "[1]; Form I, Buffer pH 8", "value": 0.001, "unit": "mg/g"}, {"measurement": "Solubility", "setting": "[1]; Form I, Buffer pH 10", "value": 0.001, "unit": "mg/g"}, {"measurement": "Solubility", "setting": "[1]; Form I, Polyethylene glycol 400", "value": 47.4, "unit": "mg/g"}, {"measurement": "Solubility", "setting": "[1]; Form I, Propylene glycol", "value": 2.69, "unit": "mg/g"}, {"measurement": "Solubility", "setting": "[1]; Form I, Water", "value": 0.001, "unit": "mg/g"}, {"measurement": "solubility in water", "setting": "[1]; water", "value": "virtually insoluble in water"}, {"measurement": "Solubility", "setting": "[1]; water, read-out: solubility of dapivirine in water", "value": "< 1", "unit": "µg/mL"}, {"measurement": "pKa", "setting": "[2]", "value": 5.8}, {"measurement": "activity against wild-type and resistant HIV-1 strains", "setting": "[3]", "value": "potent activity"}]}]}
